BindingDB's records for doi:10.1038/sj.npp.1300203 (Case Western Reserve University, 2003)

What was measured:
[1] = target: T1, Prostaglandin E2 receptor EP3 subtype (Homo sapiens, UniProt P43115)
T1 sequence (P43115 whole entry): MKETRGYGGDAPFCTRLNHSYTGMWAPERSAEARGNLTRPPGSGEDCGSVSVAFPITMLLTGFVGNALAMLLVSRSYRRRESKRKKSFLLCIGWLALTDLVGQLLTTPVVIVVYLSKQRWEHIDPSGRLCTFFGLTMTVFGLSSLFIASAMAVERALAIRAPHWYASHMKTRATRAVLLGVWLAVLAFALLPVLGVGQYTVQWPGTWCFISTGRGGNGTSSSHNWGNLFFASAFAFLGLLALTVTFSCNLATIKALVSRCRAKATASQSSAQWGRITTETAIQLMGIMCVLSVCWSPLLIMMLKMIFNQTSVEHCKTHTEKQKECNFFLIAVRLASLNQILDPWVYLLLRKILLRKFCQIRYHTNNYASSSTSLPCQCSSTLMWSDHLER

[2] = target: Gamma-aminobutyric acid type B receptor subunit 1 (UniProt Q9Z0U4)
Histamine H3 receptor = Histamine H3 receptor (Cavia porcellus, UniProt Q9JI35)
[3] = target: Protein kinase C gamma type (Homo sapiens, UniProt P05129)
Histamine H4 receptor = Histamine H4 receptor (Homo sapiens, UniProt Q9H3N8)
[4] = target: Prostaglandin E2 receptor EP4 subtype (Homo sapiens, UniProt P35408)
[5] = target: Protein kinase C alpha type (Homo sapiens, UniProt P17252)
[6] = target: T2, 5-hydroxytryptamine receptor 3A (Rattus norvegicus, UniProt P35563)
T2 sequence (P35563 whole entry): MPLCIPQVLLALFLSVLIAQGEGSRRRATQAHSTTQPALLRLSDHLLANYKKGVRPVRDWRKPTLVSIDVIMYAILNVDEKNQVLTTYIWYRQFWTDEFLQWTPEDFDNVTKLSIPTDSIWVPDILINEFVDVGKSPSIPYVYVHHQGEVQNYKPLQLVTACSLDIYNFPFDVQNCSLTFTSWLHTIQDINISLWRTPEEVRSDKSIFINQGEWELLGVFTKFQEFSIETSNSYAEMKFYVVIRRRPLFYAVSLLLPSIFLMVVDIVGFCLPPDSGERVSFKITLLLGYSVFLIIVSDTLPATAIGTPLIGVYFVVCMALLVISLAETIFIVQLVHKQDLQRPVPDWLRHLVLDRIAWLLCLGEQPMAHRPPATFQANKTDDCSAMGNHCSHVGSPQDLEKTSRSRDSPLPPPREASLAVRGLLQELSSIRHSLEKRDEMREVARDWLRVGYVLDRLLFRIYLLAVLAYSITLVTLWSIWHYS

Histamine H4 receptor, sequence (Q9H3N8 whole entry): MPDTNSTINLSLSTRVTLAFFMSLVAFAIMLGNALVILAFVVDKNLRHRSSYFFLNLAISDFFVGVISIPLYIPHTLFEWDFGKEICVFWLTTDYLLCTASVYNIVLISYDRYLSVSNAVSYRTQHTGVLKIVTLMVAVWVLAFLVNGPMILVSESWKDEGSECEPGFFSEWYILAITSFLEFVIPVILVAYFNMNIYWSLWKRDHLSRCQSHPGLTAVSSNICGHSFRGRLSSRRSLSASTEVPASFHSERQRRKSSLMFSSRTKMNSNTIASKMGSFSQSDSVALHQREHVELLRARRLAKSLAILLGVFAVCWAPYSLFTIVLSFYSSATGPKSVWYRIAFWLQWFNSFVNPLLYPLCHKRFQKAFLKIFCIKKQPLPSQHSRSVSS
Prostaglandin E2 receptor EP4 subtype, sequence (P35408 whole entry): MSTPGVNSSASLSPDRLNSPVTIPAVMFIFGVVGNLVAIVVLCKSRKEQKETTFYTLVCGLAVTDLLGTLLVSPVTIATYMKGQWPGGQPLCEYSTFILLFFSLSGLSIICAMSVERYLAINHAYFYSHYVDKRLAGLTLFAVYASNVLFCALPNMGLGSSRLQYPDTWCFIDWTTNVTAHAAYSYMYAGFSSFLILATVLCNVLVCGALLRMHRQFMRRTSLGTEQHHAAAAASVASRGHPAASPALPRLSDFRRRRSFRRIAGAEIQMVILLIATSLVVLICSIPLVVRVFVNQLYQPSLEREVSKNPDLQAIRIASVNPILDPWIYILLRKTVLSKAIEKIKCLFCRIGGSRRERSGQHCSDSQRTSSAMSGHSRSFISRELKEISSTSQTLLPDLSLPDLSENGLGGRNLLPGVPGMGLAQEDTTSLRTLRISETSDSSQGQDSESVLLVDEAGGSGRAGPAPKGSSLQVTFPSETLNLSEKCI
Gamma-aminobutyric acid type B receptor subunit 1, sequence (Q9Z0U4 whole entry): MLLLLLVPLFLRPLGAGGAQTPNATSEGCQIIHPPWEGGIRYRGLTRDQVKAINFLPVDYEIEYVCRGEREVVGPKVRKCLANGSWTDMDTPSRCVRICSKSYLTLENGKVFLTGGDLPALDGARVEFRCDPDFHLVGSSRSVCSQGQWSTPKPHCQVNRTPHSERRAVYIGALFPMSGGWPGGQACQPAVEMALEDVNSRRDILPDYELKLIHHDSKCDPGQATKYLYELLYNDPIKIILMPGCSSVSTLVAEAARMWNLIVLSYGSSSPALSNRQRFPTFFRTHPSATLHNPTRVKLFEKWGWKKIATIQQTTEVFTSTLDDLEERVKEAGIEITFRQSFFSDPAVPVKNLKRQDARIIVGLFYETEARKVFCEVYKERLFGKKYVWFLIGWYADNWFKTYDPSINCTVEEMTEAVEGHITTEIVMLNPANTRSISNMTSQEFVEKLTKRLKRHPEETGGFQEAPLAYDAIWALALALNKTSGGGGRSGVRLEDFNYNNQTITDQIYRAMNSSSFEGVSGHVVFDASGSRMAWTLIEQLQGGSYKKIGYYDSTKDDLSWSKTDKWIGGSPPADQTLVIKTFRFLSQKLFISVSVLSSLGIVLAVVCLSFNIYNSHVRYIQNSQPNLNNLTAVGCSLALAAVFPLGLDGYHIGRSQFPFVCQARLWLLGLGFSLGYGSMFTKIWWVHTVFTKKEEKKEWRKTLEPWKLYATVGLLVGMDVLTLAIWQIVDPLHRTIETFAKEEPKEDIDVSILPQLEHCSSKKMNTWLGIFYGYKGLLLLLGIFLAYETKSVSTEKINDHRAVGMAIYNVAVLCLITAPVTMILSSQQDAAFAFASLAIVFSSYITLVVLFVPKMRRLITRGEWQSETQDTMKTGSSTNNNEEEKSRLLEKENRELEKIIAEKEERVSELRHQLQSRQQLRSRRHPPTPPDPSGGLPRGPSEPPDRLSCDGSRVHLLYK
Histamine H3 receptor, sequence (Q9JI35 whole entry): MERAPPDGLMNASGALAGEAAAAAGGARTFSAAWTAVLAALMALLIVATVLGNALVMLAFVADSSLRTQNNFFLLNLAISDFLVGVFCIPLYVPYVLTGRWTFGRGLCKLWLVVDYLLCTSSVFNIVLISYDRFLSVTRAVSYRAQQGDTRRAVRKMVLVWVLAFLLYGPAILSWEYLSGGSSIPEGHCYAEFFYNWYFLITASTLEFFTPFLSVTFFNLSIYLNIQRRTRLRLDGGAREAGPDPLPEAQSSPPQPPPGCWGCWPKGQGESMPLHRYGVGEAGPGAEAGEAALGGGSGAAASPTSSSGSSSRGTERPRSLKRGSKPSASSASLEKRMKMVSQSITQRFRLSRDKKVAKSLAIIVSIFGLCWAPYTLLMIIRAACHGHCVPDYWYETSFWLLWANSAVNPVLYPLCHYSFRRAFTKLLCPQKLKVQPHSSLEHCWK

With `O=C1CCc2ccc(OCCCCN3CCN(c4cccc(Cl)c4Cl)CC3)cc2N1` [7-{4-[4-(2,3-dichlorophenyl)piperazin-1-yl]butoxy}-3,4-dihydroquinolin-2(1H)-one] the Ki [1] was greater than 10 µM, the Ki [2] was greater than 10 µM and the Ki (Histamine H3 receptor) was 0.224 µM. The Ki [3] was 8 µM, the Ki (Histamine H4 receptor) was greater than 10 µM and the Ki [4] was greater than 10 µM. For the same molecule, the Ki [5] was greater than 10 µM and the Ki [6] was 0.63 µM.
